Reference: PubChem BioAssay (NCI)
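Five compound concentrations were applied to cells in 96-well plates for 48 hours; endpoints were derived by simple linear interpolation of the resulting dose-response curve. Here, GI50 denotes the concentration required for 50% inhibition of growth. TGI: total growth inhibition.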

Assays:
Assay in all cases: NCI anticancer screen, dose series, 48 h
A549 NSCLC = tested on: A549 NSCLC
BT-549 breast = tested on: BT-549 breast
DU-145 prostate = tested on: DU-145 prostate
EKVX NSCLC = tested on: EKVX NSCLC
HOP-92 NSCLC = tested on: HOP-92 NSCLC
HT29 colon = tested on: HT29 colon
OVCAR-5 ovarian = tested on: OVCAR-5 ovarian
OVCAR-8 ovarian = tested on: OVCAR-8 ovarian
SF-539 CNS = tested on: SF-539 CNS
TK-10 renal = tested on: TK-10 renal

SMILES	GI50 (A549 NSCLC)	TGI (A549 NSCLC)	GI50 (BT-549 breast)	TGI (BT-549 breast)	GI50 (DU-145 prostate)	TGI (DU-145 prostate)	GI50 (EKVX NSCLC)	TGI (EKVX NSCLC)	GI50 (HOP-92 NSCLC)	TGI (HOP-92 NSCLC)	GI50 (HT29 colon)	TGI (HT29 colon)	GI50 (OVCAR-5 ovarian)	TGI (OVCAR-5 ovarian)	GI50 (OVCAR-8 ovarian)	TGI (OVCAR-8 ovarian)	GI50 (SF-539 CNS)	TGI (SF-539 CNS)	GI50 (TK-10 renal)	TGI (TK-10 renal)
COc1ccc(/C=C2/SC(Nc3nc(-c4nc(NC5=NC(=O)/C(=C\c6ccc(OC)cc6)S5)sc4C)c(C)s3)=NC2=O)cc1	1.14 µM	17.2 µM	2.23 µM	22.2 µM	2.43 µM	> 19.7 µM	0.213 µM	2.43 µM	6.15 µM	19.1 µM	1.99 µM	> 50 µM	5.18 µM	24.5 µM	1.71 µM	16.7 µM	1.36 µM	3.95 µM	0.172 µM	0.77 µM
CC1(C)CCCC(C)(C2CCC3(C)C2C(O)CC2C4(C)CCC(O)C(C)(C)C4CCC23C)O1 (stereo not given)	–	> 100 µM	–	> 100 µM	–	> 100 µM	–	> 100 µM	–	> 100 µM	–	> 100 µM	–	> 100 µM	–	> 100 µM	–	> 100 µM	–	> 100 µM
Cc1cc(C)c(-c2c(N)cc(Br)cc2Br)c(N)c1	5.62 µM	19.6 µM	5.76 µM	18.2 µM	4.33 µM	16.4 µM	5.15 µM	26.3 µM	2.77 µM	9.4 µM	3.49 µM	13.1 µM	11.6 µM	25.6 µM	10.2 µM	31.7 µM	2.94 µM	9.87 µM	7.17 µM	20.5 µM
CCOc1ccn(-c2ccc(F)cc2)c(=O)c1C(=O)Nc1ccc(Oc2ccnc(N)c2Cl)c(F)c1	9.12 µM	86.2 µM	13.8 µM	59.2 µM	21.1 µM	> 100 µM	31.3 µM	> 100 µM	0.801 µM	12.3 µM	6.63 µM	82.3 µM	12.9 µM	67 µM	15.2 µM	> 100 µM	7.53 µM	34.1 µM	15.1 µM	55.2 µM
CC1=CC(C)(C)NN1C1=NS(=O)(=O)c2ccccc2N1C	–	> 100 µM	–	> 100 µM	–	> 100 µM	–	> 100 µM	–	> 100 µM	–	> 100 µM	–	> 100 µM	–	> 100 µM	–	> 100 µM	–	> 100 µM
CC(=O)[C@H]1CCC/C=C/[C@@H]2C[C@H](O)C[C@H]2[C@H](O)/C=C/C(=O)O1	1.17 µM	> 100 µM	0.657 µM	> 100 µM	2.99 µM	> 100 µM	0.932 µM	> 100 µM	4.93 µM	> 100 µM	0.253 µM	1.44 µM	2.1 µM	> 62.6 µM	0.982 µM	> 100 µM	1.01 µM	> 100 µM	0.398 µM	3.17 µM
C=CCC(N[C@@H](CO)c1ccccc1)c1cn(C(=O)OCC)c2ccccc12 (stereo not given in full)	34.7 µM	> 100 µM	32.9 µM	> 100 µM	27.6 µM	86 µM	35.3 µM	> 100 µM	16.5 µM	39.8 µM	23.3 µM	62.7 µM	23.3 µM	66.1 µM	31.7 µM	> 100 µM	20.6 µM	37.3 µM	23.2 µM	73.6 µM
O=c1c(Cl)c(Cl)cnn1CCCl	–	35.3 µM	–	13.9 µM	–	34 µM	–	15.9 µM	–	3.48 µM	–	10.8 µM	–	34.5 µM	–	10.9 µM	–	29.5 µM	–	30.3 µM
